{"source": "patent US11844803B2", "about": "“Renal dysfunction improving drug comprising optical isomer of 1,4-benzothiazepine-1-oxide derivative” (AETAS PHARMA CO., LTD., priority 2017, dated 2023)", "key": {"dog renal function": {"test_system": "dog renal function", "assay": "Action on dog renal function, anesthetized beagle, ureter cannulation, cumulative i.v. doses", "assay_type": "in vivo", "experimental": "Method: 5 mg/kg of ketamine hydrochloride (KETALAR FOR INTRAMUSCULAR INJECTION 500 mg, 50 mg/mL, DAIICHI SANKYO COMPANY, LIMITED) was intramuscularly administered to a 10 to 12 kg beagle dog (n=4) as a preanesthetic administration, and then anesthesia was performed by inhale of isoflurane. After intratracheal intubation, isoflurane was inhaled in a range of 1 to 5%, artificial ventilation was carried out, and a tracheal tube was intubated and mounted on a ventilator. The examinations were performed under the ventilation conditions of 10 to 25 mL/kg/stroke and 10 to 20 stroke/min. The lower abdomen was incised, the dog was cannulated in the ureters at the both sides, and urine was continually collected. After the urination became constant, the compound (A) as the first optical isomer component which had been obtained in Example 2 was dissolved in physiological saline, and cumulative doses of 0.1 mg/kg, 0.3 mg/kg, 1 mg/kg, and 3 mg/kg of Compound (A) were administered through the leg veins for 20 minutes each.\nA blood sample was obtained before the start of administration of the compound [IV] and every 20 minutes after completion of administration beginning at a time immediately after completion of administration (0 minutes), and changes in urine volume from the ureters at the both sides, Na in urine, K in urine, and a serum creatinine value were examined every 20 minutes."}, "[1]": {"test_system": "ischemia/reperfusion injury in kidneys", "assay": "Rat kidney ischemia/reperfusion injury model (renal arteries clamped 45 minutes, then reperfusion)", "assay_type": "in vivo, SD rats", "settings": "48 hours after administration; hydrochloride, 6 mg/kg in total; n=6; placebo 6.07±0.36; before administration 0.27±0.01", "experimental": "Method: Eleven 8-week-old male SD rats were used and laparotomized under anesthesia, the renal artery of the left kidney, and then after 1 minute, that of the right kidney were clamped using a non-traumatic clip for 45 minutes, and then reperfusion was performed.\nThe hydrochloride of the first optical isomer component (compound (A)) of the formula [IV] of the present invention was dissolved in physiological saline, and 4 mg/kg (before ischemia) and 2 mg/kg (before and after reperfusion) of the compound (A) (6 mg/kg in total) were administered for 10 minutes before ischemia and before and after reperfusion, respectively. On the other hand, the placebo group was subjected to the same procedure as in the compound (A)—administration group in every way except that only physiological saline was administered instead of physiological saline solution of the hydrochloride of the compound (A). […]\nFor calculation of a creatinine clearance value, the total urine of during 60 minutes before administration and during 0 to 8, 8 to 24, and 24 to 48 hours after administration were collected in each rat, and the urine volume and the value of creatinine in urine were measured. Further, a blood sample was obtained before administration and after 4, 8, 24, and 48 hours of administration and serum creatinine values were measured over time. […]"}, "human renal function": {"test_system": "human renal function", "assay": "Action on human renal function: 8-hour urine volume after i.v. administration, double-blinded", "assay_type": "in vivo, adult human (male)", "settings": "for total urine volume from 0 to 8 hours after administration: hydrochloride, 6 persons, placebo 459.8 (±184.1)", "experimental": "After an adult was caused to completely urinate before administration of the compound (A), the compound (A) was administered to the adult. The study was performed in a double-blinded manner.\n(§1) Method: Three groups including a group with 0 mg/kg of the compound (A) being administered (placebo group: 8 persons), a group with 0.05 mg/kg of the compound (A) being administered (6 persons), and a group with 0.15 mg/kg of the compound (A) being administered (6 persons) were made. The hydrochloride of the compound (A) was dissolved in physiological saline and intravenously administered at a rate of 2.5 mL/min for 20 minutes. The urine volume from a time immediately after administration to a time after 8 hours of administration and the maximum plasma concentration immediately after administration were measured."}, "[2]": {"assay": "Maximum plasma concentration immediately after i.v. administration in adult human", "assay_type": "in vivo, adult human (male)", "settings": "0.15 mg/kg i.v. for 20 minutes, hydrochloride, 6 persons", "experimental": "as §1"}, "[3]": {"test_system": "dog with complete atrioventricular block", "assay": "Torsades de Pointes in dog with complete atrioventricular block", "assay_type": "in vivo", "settings": "dose not given"}, "[4]": {"assay": "Stability and solubility properties of the substance", "assay_type": "physicochemical"}, "[5]": {"test_system": "dog with complete atrioventricular block", "settings": "1.2 mg/kg body weight; Non-Patent Document 3; cited from earlier work"}}, "note": "Read-outs that look alike come from different tables or passages of the source.", "data": [{"smiles": "COc1ccc2c(c1)CN(C(=O)CCN1CCC(Cc3ccccc3)CC1)CC[S+]2[O-]", "note": "(single isomer, unassigned) [compound (A), 4-[3-(4-benzylpiperidin-1-yl)propionyl]-7-methoxy-2,3,4,5-tetrahydro-1,4-benzothiazepine-1-oxide]", "values": [{"measurement": "excretion amount of sodium (amount of urinary sodium) vs control", "setting": "dog renal function; after 1 mg/kg and 3 mg/kg i.v. (cumulative doses), n=4, FIG. 5", "value": "significant increase"}, {"measurement": "excretion amount of potassium (amount of urinary potassium) vs control", "setting": "dog renal function; after 1 mg/kg and 3 mg/kg i.v. (cumulative doses), n=4, FIG. 6", "value": "significant increase"}, {"measurement": "serum creatinine value vs control", "setting": "dog renal function; after 1 mg/kg and 3 mg/kg i.v. (cumulative doses), n=4, FIG. 7", "value": "significant decrease"}, {"measurement": "urine volume vs control", "setting": "dog renal function; after 1 mg/kg and 3 mg/kg i.v. (cumulative doses, 20 minutes each), n=4, paired t, FIG. 4", "value": "significant increase"}, {"measurement": "serum creatinine value", "setting": "[1]", "value": "3.02 ± 0.82", "unit": "mg/dL"}, {"measurement": "total urine volume from 0 to 8 hours after administration", "setting": "human renal function; 0.05 mg/kg i.v. for 20 minutes", "value": "545.2 (±362.1) mL"}, {"measurement": "increase in urine volume as compared to the placebo group (significance)", "setting": "human renal function; 0.05 mg/kg i.v., 0 to 8 hours", "value": "significant (p<0.05) increase in urine volume was not recognized"}, {"measurement": "total urine volume from 0 to 8 hours after administration", "setting": "human renal function; 0.15 mg/kg i.v. for 20 minutes", "value": "914.2 (±431.0) mL"}, {"measurement": "increase in urine volume as compared to the placebo group (significance)", "setting": "human renal function; 0.15 mg/kg i.v., 0 to 8 hours", "value": "significant (p<0.05) increase"}, {"measurement": "urine volume relative to that of the placebo group", "setting": "human renal function; 0.15 mg/kg i.v., 0 to 8 hours", "value": "approximately two times"}, {"measurement": "blood concentration immediately after administration", "setting": "[2]", "value": "349.3 ± 93.7", "unit": "ng/mL"}, {"measurement": "occurrence of Torsades de Pointes", "setting": "[3]", "value": "does not cause Torsades de Pointes"}, {"measurement": "solubility", "setting": "[4]", "value": "water-soluble"}]}, {"smiles": "COc1ccc2c(c1)CN(C(=O)CCN1CCC(Cc3ccccc3)CC1)CC[S+]2[O-]", "note": "(stereo not drawn) [compound having the above formula [Ia]] [4-[3-(4-benzylpiperidin-1-yl)propionyl]-7-methoxy-2,3,4,5-tetrahydro-1,4-benzothiazepine-1-oxide]", "values": [{"measurement": "solubility", "setting": "[4]", "value": "easily dissolved in ethanol and dimethyl sulfoxide (DMSO)"}, {"measurement": "stability", "setting": "[4]; room temperature", "value": "stable to oxygen, humidity, acid, and alkali"}, {"measurement": "skin irritating property", "setting": "Skin irritating property", "value": "has a skin irritating property"}]}, {"smiles": "COc1ccc2c(c1)CN(C(=O)CCN1CCC(Cc3ccccc3)CC1)CCS2", "note": "[JTV519, 4-[3-(4-benzylpiperidin-1-yl)propionyl]-7-methoxy-2,3,4,5-tetrahydro-1,4-benzothiazepine]", "values": [{"measurement": "occurrence of Torsades de Pointes", "setting": "[5]", "value": "Torsades de Pointes that is life-threatening arrhythmia occurs"}]}, {"smiles": "COc1ccc2c(c1)CN(C(=O)CCN1CCC(Cc3ccccc3)CC1)CC[S+]2[O-]", "note": "(stereo not drawn) [oxalate of the compound [Ia]] [4-[3-(4-benzylpiperidin-1-yl)propionyl]-7-methoxy-2,3,4,5-tetrahydro-1,4-benzothiazepine-1-oxide]", "values": [{"measurement": "solubility", "setting": "[4]", "value": "soluble in water, ethanol, and dimethyl sulfoxide"}]}]}
